Reference: PubChem BioAssay AID270 (DTP/NCI, 2004)
“And” between values parts separate entries of the source, which are not always exact repeats. Equal values may be shown once. Results filed as inconclusive are left out.

Test system: BDF1 mice, s.c. Lewis lung carcinoma, T/C %
Experiment: NCI In Vivo Anticancer Drug Screen. Data for tumor model Lewis Lung Carcinoma (subcutaneous) in B6D2F1 (BDF1) mice
Method in brief: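 Antitumor effect in vivo is scored from survival or tumor burden, reported as treated relative to vehicle controls.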

[1] = endpoint: median survival time, dose: 25.0 mg/kg/injection, schedule: Q01DX009 (ip), vehicle: Klucel (hydroxypropylcellulose) (HPC), higher = longer survival
[2] = endpoint: median survival time, dose: 50.0 mg/kg/injection, schedule: Q01DX009 (ip), vehicle: Klucel (hydroxypropylcellulose) (HPC), higher = longer survival
[3] = endpoint: median survival time, dose: 1.0 mg/kg/injection, schedule: Q01DX009 (ip), vehicle: saline, higher = longer survival

CCN(CC)CCCC(C)Nc1c2ccc(Cl)cc2nc2cc(Cl)ccc12 (stereo not drawn)
T/C (endpoint: median survival time, dose: 12.5 mg/kg/injection, schedule: Q01DX009 (ip), vehicle: Klucel (hydroxypropylcellulose) (HPC), higher = longer survival): 105 % of control
T/C [1]: 97 % of control
T/C [2]: 105 % of control

NC(=S)N/N=C/c1cc(-c2cccc(N)c2)ccn1
T/C (endpoint: median survival time, dose: 6.25 mg/kg/injection, schedule: Q01DX009 (ip), vehicle: saline with Tween-80, higher = longer survival): 106 % of control
T/C (endpoint: median survival time, dose: 12.5 mg/kg/injection, schedule: Q01DX009 (ip), vehicle: saline with Tween-80, higher = longer survival): 102 % of control and 106 % of control
T/C (endpoint: median survival time, dose: 25.0 mg/kg/injection, schedule: Q01DX009 (ip), vehicle: saline with Tween-80, higher = longer survival): 117 % of control and 119 % of control
T/C (endpoint: median survival time, dose: 50.0 mg/kg/injection, schedule: Q01DX009 (ip), vehicle: saline with Tween-80, higher = longer survival): 87 % of control and 123 % of control

CN(C)CCCNc1c2ccccc2nc2cccc([N+](=O)[O-])c12
T/C (endpoint: median survival time, dose: 2.0 micrograms/kg/injection, schedule: Q01DX009 (ip), vehicle: saline, higher = longer survival): 98 % of control and 118 % of control
T/C (endpoint: median survival time, dose: 8.0 micrograms/kg/injection, schedule: Q01DX009 (ip), vehicle: saline, higher = longer survival): 89 % of control
T/C (endpoint: median survival time, dose: 16.0 micrograms/kg/injection, schedule: Q01DX009 (ip), vehicle: saline, higher = longer survival): 109 % of control
T/C (endpoint: median survival time, dose: 32.0 micrograms/kg/injection, schedule: Q01DX009 (ip), vehicle: saline, higher = longer survival): 95 % of control
T/C (endpoint: median survival time, dose: 125.0 micrograms/kg/injection, schedule: Q01DX009 (ip), vehicle: saline, higher = longer survival): 93 % of control

Nc1ccc(O)cc1
T/C (endpoint: mean tumor weight, dose: 37.5 mg/kg/injection, schedule: Q01DX011 (ip), vehicle: saline, higher = larger tumour): 96 % of control
T/C (endpoint: mean tumor weight, dose: 300.0 mg/kg/injection, schedule: Q01DX011 (ip), vehicle: saline, higher = larger tumour): 26 % of control

Cc1ccc2c(Nc3ccc(NS(C)(=O)=O)cc3)c3ccccc3nc2c1C
T/C (endpoint: median survival time, dose: 10.0 mg/kg/injection, schedule: Q01DX009 (ip), vehicle: other, higher = longer survival): 98 % of control
T/C (endpoint: median survival time, dose: 40.0 mg/kg/injection, schedule: Q01DX009 (ip), vehicle: other, higher = longer survival): 124 % of control

C1CC[N-]CC1.C1CC[N-]CC1.C1CC[N-]CC1.[Cl][Rh]([Cl])[Cl]
T/C (endpoint: median survival time, dose: 4.0 mg/kg/injection, schedule: Q01DX009 (ip), vehicle: saline, higher = longer survival): 96 % of control
T/C (endpoint: median survival time, dose: 8.0 mg/kg/injection, schedule: Q01DX009 (ip), vehicle: saline, higher = longer survival): 93 % of control
T/C (endpoint: median survival time, dose: 16.0 mg/kg/injection, schedule: Q01DX009 (ip), vehicle: saline, higher = longer survival): 103 % of control
T/C (endpoint: median survival time, dose: 32.0 mg/kg/injection, schedule: Q01DX009 (ip), vehicle: saline, higher = longer survival): 98 % of control
T/C (endpoint: median survival time, dose: 64.0 mg/kg/injection, schedule: Q01DX009 (ip), vehicle: saline, higher = longer survival): 92 % of control

CC(C)n1c2c([n+](C)c1/C=C/c1ccccc1)C(=O)c1ccccc1C2=O
T/C (endpoint: median survival time, dose: 0.5 mg/kg/injection, schedule: Q01DX009 (ip), vehicle: saline, higher = longer survival): 96 % of control
T/C [3]: 110 % of control

Oc1cc(N2CC2)c(O)cc1N1CC1
T/C (endpoint: median survival time, dose: 0.22 mg/kg/injection, schedule: Q01DX009 (ip), vehicle: saline, higher = longer survival): 106 % of control
T/C (endpoint: median survival time, dose: 0.44 mg/kg/injection, schedule: Q01DX009 (ip), vehicle: saline, higher = longer survival): 105 % of control
T/C (endpoint: median survival time, dose: 0.68 mg/kg/injection, schedule: Q01DX009 (ip), vehicle: saline, higher = longer survival): 110 % of control
T/C [3]: 90 % of control

O=C1CC(c2ccc(O)cc2)CC(=O)C1C(C1CC=CCC1)N(CCCl)CCCl (stereo not drawn)
T/C [1]: 122 % of control
T/C [2]: 123 % of control
T/C (endpoint: median survival time, dose: 100.0 mg/kg/injection, schedule: Q01DX009 (ip), vehicle: Klucel (hydroxypropylcellulose) (HPC), higher = longer survival): 115 % of control
T/C (endpoint: median survival time, dose: 200.0 mg/kg/injection, schedule: Q01DX009 (ip), vehicle: Klucel (hydroxypropylcellulose) (HPC), higher = longer survival): 111 % of control
T/C (endpoint: median survival time, dose: 400.0 mg/kg/injection, schedule: Q01DX009 (ip), vehicle: Klucel (hydroxypropylcellulose) (HPC), higher = longer survival): 98 % of control

CC[n+]1ccc(Nc2ccc(NC(=O)c3ccc(Nc4cc[n+](CC)c5ccc(N)cc45)cc3)cc2)cc1
T/C (endpoint: mean tumor weight, dose: 0.5 mg/kg/injection, schedule: Q01DX011 (ip), vehicle: saline, higher = larger tumour): 86 % of control
T/C (endpoint: mean tumor weight, dose: 1.0 mg/kg/injection, schedule: Q01DX011 (ip), vehicle: saline, higher = larger tumour): 107 % of control
T/C (endpoint: mean tumor weight, dose: 2.0 mg/kg/injection, schedule: Q01DX011 (ip), vehicle: saline, higher = larger tumour): 73 % of control
T/C (endpoint: mean tumor weight, dose: 4.0 mg/kg/injection, schedule: Q01DX011 (ip), vehicle: saline, higher = larger tumour): 33 % of control

CCN(CC)C(=S)S.[Te]
T/C (endpoint: mean tumor weight, dose: 50.0 mg/kg/injection, schedule: Q01DX011 (ip), vehicle: carboxymethylcellulose (CMC), higher = larger tumour): 24 % of control and 36 % of control
T/C (endpoint: mean tumor weight, dose: 200.0 mg/kg/injection, schedule: Q01DX011 (ip), vehicle: carboxymethylcellulose (CMC), higher = larger tumour): 10 % of control
